Results published in patent US20220251116A1, “ALKYLBORONIC ACIDS AS ARGINASE INHIBITORS” (Guangdong Newopp Biopharmaceuticals Co., Ltd., priority 2019, published 2022).
pIC50: −log10 of the molar value. Where a name gives a salt, the structure may show the parent alone. Values belong to the compound of their own block, whether it stands above or below them.

Molecular target: T1, recombinant human arginase 1 (Homo sapiens, UniProt P05089)
T1 sequence (P05089 1-322): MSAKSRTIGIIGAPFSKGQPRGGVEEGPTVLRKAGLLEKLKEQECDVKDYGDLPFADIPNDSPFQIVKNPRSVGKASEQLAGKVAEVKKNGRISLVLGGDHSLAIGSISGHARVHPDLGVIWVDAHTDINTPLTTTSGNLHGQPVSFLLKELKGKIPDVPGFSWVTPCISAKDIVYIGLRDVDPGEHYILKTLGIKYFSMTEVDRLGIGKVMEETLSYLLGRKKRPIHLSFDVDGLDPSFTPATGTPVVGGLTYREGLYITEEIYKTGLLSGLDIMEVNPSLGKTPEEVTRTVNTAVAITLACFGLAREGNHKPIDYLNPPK
Assay: Arginase inhibitory activity test, enzymatic assay based on urea measurement (Arg 1);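 also: enzyme incubated with L-arginine substrate and compound at 37 °C for 120 min, urea product detected colorimetrically by absorbance at 450 nm, background from wells lacking enzyme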
Method: An enzymatic assay with recombinant human arginases 1 or 2 was used to measure inhibitory activity of the compounds. The assay is based on urea measurement, which is a product of L-arginine enzymatic degradation.
Briefly, arginase and the substrate solution containing L-arginine were incubated in the absence or presence of varying concentrations of compounds at 37° C. for 120 min. For the background correction, only the substrate solution was added without arginase. The urea detection reagent from QuantiChrome™ Urea assay kit (BioAssay Systems, CA) was added to develop the color product. After 60 min at room temperature, the absorbance was measured at 450 nm with CLARIOstar (BMG LABTECH). Urea was used as the standard.

pIC50: 6.00 to 7.00
Compound: NC1CN(S(=O)(=O)N2C[C@H](CCCB(O)O)[C@](N)(C(=O)O)C2)C1 (racemic) [Example 33, (rac)-trans-3-amino-1-((3-aminoazetidin-1-yl)sulfonyl)-4-(3-boronopropyl)pyrrolidine-3-carboxylic acid, 2,2,2-trifluoroacetic acid salt (1:2)]

pIC50: 5.00 to 6.00
Compound: CCN(CC1(N)CC1)S(=O)(=O)N1C[C@H](CCCB(O)O)[C@](N)(C(=O)O)C1 [Example 65, (3R,4S)-3-amino-1-(N-((1-aminocyclopropyl)methyl)-N-ethylsulfamoyl)-4-(3-boronopropyl)pyrrolidine-3-carboxylic acid, 2,2,2-trifluoroacetic acid salt (1:2)]

pIC50: 6.00 to 7.00
Compound: NC1(CNS(=O)(=O)N2C[C@H](CCCB(O)O)[C@](N)(C(=O)O)C2)CC1 (racemic) [Example 19, (rac)-(trans)3-amino-1-(N-((1-aminocyclopropyl)methyl)sulfamoyl)-4-(3-boronopropyl)pyrrolidine-3-carboxylic acid, 2,2,2-trifluoroacetic acid salt (1:2)]

pIC50: 6.00 to 7.00
Compound: CC1(NS(=O)(=O)N2C[C@H](CCCB(O)O)[C@](N)(C(=O)O)C2)CNC1 (racemic) [Example 43, (rac)-trans-3-amino-4-(3-boronopropyl)-1-(N-(3-methylazetidin-3-yl)sulfamoyl)pyrrolidine-3-carboxylic acid, 2,2,2-trifluoroacetic acid salt (1:2)]

pIC50: 5.00 to 6.00
Compound: NC(=O)CNS(=O)(=O)N1C[C@H](CCCB(O)O)[C@](N)(C(=O)O)C1 (racemic) [Example 7, (rac)trans-3-amino-1-(N-(2-amino-2-oxoethyl)sulfamoyl)-4-(3-boronopropyl)pyrrolidine-3-carboxylic acid, (1:1) 2,2,2-trifluoroacetic acid salt]

pIC50: 5.00 to 6.00
Compound: CNS(=O)(=O)N1C[C@H](CCCB(O)O)[C@](N)(C(=O)O)C1 (racemic) [Example 2, (rac)trans-3-amino-4-(3-boronopropyl)-1-(N-methylsulfamoyl)pyrrolidine-3-carboxylic acid, (1:1) 2,2,2-trifluoroacetic acid salt]

pIC50: > 7.00
Compound: NCC1(NS(=O)(=O)N2C[C@H](CCCB(O)O)[C@](N)(C(=O)O)C2)CC1 (racemic) [Example 12, (rac)trans-3-amino-1-(N-(1-(aminomethyl)cyclopropyl)sulfamoyl)-4-(3-boronopropyl)pyrrolidine-3-carboxylic acid, (1:2) 2,2,2-trifluoroacetic acid salt]

pIC50: 6.00 to 7.00
Compound: CC(C)(O)CNS(=O)(=O)N1C[C@H](CCCB(O)O)[C@](N)(C(=O)O)C1 (racemic) [Example 9, (rac)trans-3-amino-4-(3-boronopropyl)-1-(N-(2-hydroxy-2-methylpropyl)sulfamoyl)pyrrolidine-3-carboxylic acid, (1:1) 2,2,2-trifluoroacetic acid salt]

pIC50: 6.00 to 7.00
Compound: C[C@@H](N)C(=O)NS(=O)(=O)N1C[C@H](CCCB(O)O)[C@](N)(C(=O)O)C1 (racemic) [Example 35, (rac)-trans-1-(N-alanylsulfamoyl)-3-amino-4-(3-boronopropyl)pyrrolidine-3-carboxylic acid, 2,2,2-trifluoroacetic acid salt (1:2)]

pIC50: 6.00 to 7.00
Compound: NC1(CNS(=O)(=O)N2C[C@H](CCCB(O)O)[C@](N)(C(=O)O)C2)COC1 (racemic) [Example 39, (rac)-trans-3-amino-1-(N-((3-aminooxetan-3-yl)methyl)sulfamoyl)-4-(3-boronopropyl)pyrrolidine-3-carboxylic acid, 2,2,2-trifluoroacetic acid salt (1:2)]

Second part, the compound before the results:

Compound: N[C@H]1CCCCC1NS(=O)(=O)N1C[C@H](CCCB(O)O)[C@](N)(C(=O)O)C1 (mixture of isomers) [Example 22, (rac)-trans-3-amino-1-(N-(trans-2-aminocyclohexyl)sulfamoyl)-4-(3-boronopropyl)pyrrolidine-3-carboxylic acid (diastereomers), 2,2,2-trifluoroacetic acid salt (1:2)]
pIC50: 6.00 to 7.00

Compound: CC(C)CN(C1CNC1)S(=O)(=O)N1C[C@H](CCCB(O)O)[C@](N)(C(=O)O)C1 [Example 60, (3R,4S)-3-amino-1-(N-(azetidin-3-yl)-N-isobutylsulfamoyl)-4-(3-boronopropyl)pyrrolidine-3-carboxylic acid, 2,2,2-trifluoroacetic acid salt (1:2)]
pIC50: > 7.00

Compound: CCCCN(C1CNC1)S(=O)(=O)N1C[C@H](CCCB(O)O)[C@](N)(C(=O)O)C1 [Example 61, (3R,4S)-3-amino-1-(N-(azetidin-3-yl)-N-butylsulfamoyl)-4-(3-boronopropyl)pyrrolidine-3-carboxylic acid, 2,2,2-trifluoroacetic acid salt (1:2)]
pIC50: > 7.00

Compound: N[C@@]1(C(=O)O)CN(S(=O)(=O)N(CC2CC2)[C@H]2CCNC2)C[C@@H]1CCCB(O)O [Example 71, (3R,4S)-3-amino-4-(3-boronopropyl)-1-(N-(cyclopropylmethyl)-N-((S)-pyrrolidin-3-yl)sulfamoyl)pyrrolidine-3-carboxylic acid, 2,2,2-trifluoroacetic acid salt (1:2)]
pIC50: > 7.00

Compound: CN(C1CNC1)S(=O)(=O)N1C[C@H](CCCB(O)O)[C@](N)(C(=O)O)C1 (racemic) [Example 42, (rac)-trans-3-amino-1-(N-(azetidin-3-yl)-N-methylsulfamoyl)-4-(3-boronopropyl)pyrrolidine-3-carboxylic acid, 2,2,2-trifluoroacetic acid salt (1:2)]
pIC50: > 7.00

Compound: NC1(CN(CC2CC2)S(=O)(=O)N2C[C@H](CCCB(O)O)[C@](N)(C(=O)O)C2)CC1 [Example 68, (3R,4S)-3-amino-1-(N-((1-aminocyclopropyl)methyl)-N-(cyclopropylmethyl)sulfamoyl)-4-(3-boronopropyl)pyrrolidine-3-carboxylic acid, 2,2,2-trifluoroacetic acid salt (1:2)]
pIC50: > 7.00

Compound: CNCCN(C)S(=O)(=O)N1C[C@H](CCCB(O)O)[C@](N)(C(=O)O)C1 (racemic) [Example 47, (racemic)-trans-3-amino-4-(3-boronopropyl)-1-(N-methyl-N-(2-(methylamino)ethyl)sulfamoyl)pyrrolidine-3-carboxylic acid, 2,2,2-trifluoroacetic acid salt (1:2)]
pIC50: > 7.00

Compound: CC(C)N(C1CNC1)S(=O)(=O)N1C[C@H](CCCB(O)O)[C@](N)(C(=O)O)C1 [Example 57, (3R,4S)-3-amino-1-(N-(azetidin-3-yl)-N-isopropylsulfamoyl)-4-(3-boronopropyl)pyrrolidine-3-carboxylic acid, 2,2,2-trifluoroacetic acid salt (1:2)]
pIC50: > 7.00

Compound: CCN(C1CNC1)S(=O)(=O)N1C[C@H](CCCB2O[C@H]3C[C@H]4C[C@H](C4(C)C)[C@@]3(C)O2)[C@](N)(C(=O)O)C1 [Example 75, (3R,4S)-3-amino-1-(N-(azetidin-3-yl)-N-ethylsulfamoyl)-4-(3-((3aR,4R,6R,7aS)-3a,5,5-trimethylhexahydro-4,6-methanobenzo[d][1,3,2]dioxaborol-2-yl)propyl)pyrrolidine-3-carboxylic acid]
pIC50: > 7.00

Compound: N[C@@H]1CCCCC1NS(=O)(=O)N1C[C@H](CCCB(O)O)[C@](N)(C(=O)O)C1 (mixture of isomers) [Example 20, (rac)trans-3-amino-1-(N-((rac)cis-2-aminocyclohexyl)sulfamoyl)-4-(3-boronopropyl)pyrrolidine-3-carboxylic acid (diastereomers), 2,2,2-trifluoroacetic acid salt (1:2)]
pIC50: < 5.00
